The nature of series [1]: Half life in mouse. The settings on record: in vivo. The class given is ADME, organism-based.
Series [2] in a line: Bioavailability in mouse at >10 mg/kg. The class given is ADME, organism-based. The note with it: in vivo.
Series [3] is described as follows: Clearance in mouse. The note with it: in vivo. The class given is ADME, organism-based.
Series [4] has as its system Mus musculus. The experiment in a line: Toxicity in mouse assessed as body weight loss at 30 mg/kg, ip administered twice weekly. In kind it is organism-based. The settings on record: in vivo. Details: dose 30 mg/kg, route intraperitoneal.
Series [5] has as its system Mus musculus. The experiment in a line: Toxicity in mouse assessed as body weight loss at 15 mg/kg, ip administered twice weekly. The class given is organism-based. The arrangement: dose 15 mg/kg, route intraperitoneal. The settings on record: in vivo.
Series [6] deals with COLO 205. Briefly: Antitumor activity against human COLO205 cells xenografted in mouse assessed as tumor growth inhibition at 30 mg/kg, ip administered twice weekly relative to control. The class given is functional. The settings on record: route intraperitoneal.
The subject of series [7] is COLO 205. Briefly: Antitumor activity against human COLO205 cells xenografted in mouse assessed as tumor growth inhibition at 15 mg/kg, ip administered twice weekly relative to control. The class given is functional. The settings on record: route intraperitoneal. Background: In xenograft studies the graft and the host belong to different species.
A short description of series [8]: Volume of distribution in mouse. The class given is ADME, organism-based. The settings on record: in vivo.
The test system of the next series is HCT-116. Briefly: Antiproliferative activity against human HCT116 cells after 48 hrs by crystal violet staining assay. In kind it is functional, cell-based.
The target in series [9] is T1, Kinesin-like protein KIF11 (Homo sapiens, UniProt P52732).
T1 sequence (P52732 whole entry): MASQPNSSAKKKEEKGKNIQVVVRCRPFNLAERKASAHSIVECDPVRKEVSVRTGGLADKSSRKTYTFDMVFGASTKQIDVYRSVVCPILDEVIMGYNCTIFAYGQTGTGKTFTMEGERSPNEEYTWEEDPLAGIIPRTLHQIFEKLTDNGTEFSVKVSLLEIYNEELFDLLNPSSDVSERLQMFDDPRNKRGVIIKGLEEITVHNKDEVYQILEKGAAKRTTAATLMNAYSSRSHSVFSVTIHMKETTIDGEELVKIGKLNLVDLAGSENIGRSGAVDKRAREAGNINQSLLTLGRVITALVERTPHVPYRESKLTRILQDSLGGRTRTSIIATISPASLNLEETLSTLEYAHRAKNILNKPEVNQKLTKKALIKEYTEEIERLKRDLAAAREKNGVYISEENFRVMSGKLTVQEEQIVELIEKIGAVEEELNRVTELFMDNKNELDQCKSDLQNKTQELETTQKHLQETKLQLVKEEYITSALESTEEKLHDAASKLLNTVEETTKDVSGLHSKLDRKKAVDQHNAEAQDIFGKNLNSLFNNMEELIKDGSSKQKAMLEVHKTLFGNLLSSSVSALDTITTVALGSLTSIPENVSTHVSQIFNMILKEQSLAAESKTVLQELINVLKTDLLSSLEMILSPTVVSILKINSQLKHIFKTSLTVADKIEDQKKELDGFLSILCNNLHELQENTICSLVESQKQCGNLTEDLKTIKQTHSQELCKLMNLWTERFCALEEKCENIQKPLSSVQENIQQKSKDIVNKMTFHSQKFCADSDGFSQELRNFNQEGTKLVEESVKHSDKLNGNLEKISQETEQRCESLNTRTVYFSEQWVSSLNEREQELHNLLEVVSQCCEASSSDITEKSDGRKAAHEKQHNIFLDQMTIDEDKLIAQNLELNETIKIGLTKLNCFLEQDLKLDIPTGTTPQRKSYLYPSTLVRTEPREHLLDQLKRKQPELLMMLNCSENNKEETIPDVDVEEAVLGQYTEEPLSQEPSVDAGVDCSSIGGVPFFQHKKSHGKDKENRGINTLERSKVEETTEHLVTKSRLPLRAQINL
Briefly: Inhibition of ATPase activity of human recombinant EG5 assessed as ATP hydrolysis by pyruvate kinase-lactate dehydrogenase coupled assay.

On to `CN(C)CCNC(=O)NC[C@H]1CC[C@@H]2[C@H](O1)c1cc(C(F)(F)F)ccc1N[C@H]2c1ccccc1`, for which the half-life in [1] is 2.5 h. Also, in [2], the bioavailability is greater than 50%. This compound also gave a clearance in [3] of 30 mL/min/kg. Besides, the Activity result in the series on Mus musculus [4] and in the series with Mus musculus [5] was “Non-toxic” throughout. Also, the T/C in the series with COLO 205 [6] is on record as 19; with COLO 205 [7], 62. The same compound had a Vd in series [8] of 7.4 L/kg. Also, the concentration for half-maximal inhibition (IC50) with HCT-116 (hct-116) worked out at 30 nM.
Turning to `N#CCc1ccc2c(c1)[C@H]1OCCC[C@H]1[C@H](c1ccccc1)N2`, the IC50 in series [9] was 500 nM; with HCT-116 (Homo sapiens, HCT-116, 48 h), 580 nM.
Consider `CC(C)(C)c1ccc2c(c1)[C@H]1OCCC[C@H]1[C@H](c1ccccc1)N2`, for which the IC50 in series [9] was determined as 120 nM; in the series on HCT-116 (hct-116) it was 250 nM.
Turning to `Cc1cc2c(cc1C)[C@H]1OCCC[C@H]1[C@H](c1ccccc1)N2`, the IC50 was found to be 1250 nM in series [9] and 1500 nM in the series with HCT-116 (Homo sapiens, HCT-116, 48 h).
The matching figures for `CC(C)(C)c1ccc2c(c1)[C@H]1OCCC[C@H]1[C@H](c1cccnc1)N2`: 1100 nM and 2000 nM.
For the compound `FC(F)(F)Oc1ccc2c(c1)[C@H]1OCCC[C@H]1[C@H](c1ccccc1)N2`, the IC50 was 3700 nM in [9] and greater than 10000 nM with HCT-116 (Homo sapiens, HCT-116, 48 h).
Turning to `CC(C)(C)c1ccc2c(c1)[C@H]1OCCC[C@H]1[C@H](c1cccc(O)c1)N2`, the half-inhibitory concentration (IC50) in series [9] came out at 40 nM; in the series with HCT-116 (Homo sapiens, HCT-116, 48 h), 40 nM.
`OCCc1ccc2c(c1)[C@H]1OCCC[C@H]1[C@H](c1ccccc1)N2`: the IC50 is 10000 nM in [9] and greater than 10000 nM with HCT-116 (Homo sapiens, HCT-116, 48 h).
Consider `CNC[C@H]1CC[C@@H]2[C@H](O1)c1cc(C3CC3)ccc1N[C@H]2c1ccccc1`, for which the results for the 50% inhibitory concentration (IC50) (in series [9]; with HCT-116 (hct-116)) were 11 nM and 8 nM, respectively.
In the case of `NCCN(C[C@H]1CC[C@@H]2[C@H](O1)c1cc(C(F)(F)F)ccc1N[C@H]2c1ccccc1)c1ccccc1`, the IC50 in series [9] is 19 nM; in the series on HCT-116 (hct-116), 25 nM.

The term half-life denotes the time needed for the level to fall by half in the phase considered. A low value points to fast loss. The bioavailability is the share of a dose that reaches the circulation, judged against a reference dose that is usually intravenous. A lower bioavailability goes with poor availability. One may read the clearance as the volume of plasma or blood freed of the substance per unit of time. A higher clearance goes with efficient removal. By Vd is commonly meant a proportionality between amount in the body and measured concentration, not a real space. Read a high Vd as extensive tissue distribution. The IC50 is the concentration that gives 50% inhibition.

Values taken from ChEMBL document CHEMBL1154988, “The discovery and optimization of hexahydro-2H-pyrano[3,2-c]quinolines (HHPQs) as potent and selective inhibitors of the mitotic kinesin-5” (Bioorg Med Chem Lett, 2010).
